Measured values published in ChEMBL document CHEMBL1138149, “Optimization of a privileged structure leading to potent and selective human melanocortin subtype-4 receptor ligands” (Bioorg Med Chem Lett, 2006).

What was measured:
[1] = molecular target: T1, Melanocyte-stimulating hormone receptor (Homo sapiens, UniProt Q01726); experiment: Activity against human MC1BR by cAMP accumulation; type: functional
Target sequence in this assay (Q01726 whole entry): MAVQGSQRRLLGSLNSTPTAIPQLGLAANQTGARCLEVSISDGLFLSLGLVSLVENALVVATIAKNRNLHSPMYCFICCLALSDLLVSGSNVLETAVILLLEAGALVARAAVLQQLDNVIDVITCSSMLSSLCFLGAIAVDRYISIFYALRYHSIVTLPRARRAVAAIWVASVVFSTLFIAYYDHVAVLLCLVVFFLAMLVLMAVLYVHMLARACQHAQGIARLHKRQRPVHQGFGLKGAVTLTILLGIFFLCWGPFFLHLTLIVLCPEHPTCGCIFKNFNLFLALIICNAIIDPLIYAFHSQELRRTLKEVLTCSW

[2] = molecular target: T2, Melanocortin receptor 5 (Homo sapiens, UniProt P33032); experiment: Activity against human MC5R by cAMP accumulation; type: functional
[3] = molecular target: T1, Melanocyte-stimulating hormone receptor; experiment: Activity against human MC1R by percentage of cAMP accumulation at 10 uM; type: functional
Target sequence in this assay (Q01726 whole entry, looked up): as the sequence (Q01726 whole entry) above

[4] = molecular target: T1, Melanocyte-stimulating hormone receptor; experiment: Displacement of [125I]NDP-alpha-MSH from human MC1BR expressed in CHO cells; type: cell-based
Target sequence in this assay (Q01726 whole entry): as above

[5] = molecular target: T3, Melanocortin receptor 4 (Homo sapiens, UniProt P32245); experiment: Activity against human MC4R by percentage of cAMP accumulation at 10 uM; type: functional
[6] = molecular target: T4, Melanocortin receptor 3 (Homo sapiens, UniProt P41968); experiment: Activity against human MC3R by percentage of cAMP accumulation at 10 uM; type: functional
[7] = molecular target: T3, Melanocortin receptor 4; experiment: Displacement of [125I]NDP-alpha-MSH from human MC4R expressed in CHO cells; type: cell-based
[8] = molecular target: T3, Melanocortin receptor 4; experiment: Activity against human MC4R by cAMP accumulation; type: functional
[9] = molecular target: T2, Melanocortin receptor 5; experiment: Displacement of [125I]NDP-alpha-MSH from human MC5R expressed in CHO cells; type: cell-based
[10] = molecular target: T4, Melanocortin receptor 3; experiment: Activity against human MC3R by cAMP accumulation; type: functional
[11] = molecular target: T2, Melanocortin receptor 5; experiment: Activity against human MC5R by percentage of cAMP accumulation at 10 uM; type: functional
[12] = molecular target: T4, Melanocortin receptor 3; experiment: Displacement of [125I]NDP-alpha-MSH from human MC3R expressed in CHO cells; type: cell-based

T2 sequence (P33032 whole entry): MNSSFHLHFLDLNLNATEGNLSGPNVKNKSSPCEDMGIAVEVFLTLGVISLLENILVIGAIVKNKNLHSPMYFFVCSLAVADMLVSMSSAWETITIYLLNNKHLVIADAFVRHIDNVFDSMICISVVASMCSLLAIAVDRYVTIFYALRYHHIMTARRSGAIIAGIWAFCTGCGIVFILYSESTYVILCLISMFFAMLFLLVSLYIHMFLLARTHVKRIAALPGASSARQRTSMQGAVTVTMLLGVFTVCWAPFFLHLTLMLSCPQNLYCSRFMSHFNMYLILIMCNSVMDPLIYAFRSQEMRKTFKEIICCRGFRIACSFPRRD
T3 sequence (P32245 whole entry): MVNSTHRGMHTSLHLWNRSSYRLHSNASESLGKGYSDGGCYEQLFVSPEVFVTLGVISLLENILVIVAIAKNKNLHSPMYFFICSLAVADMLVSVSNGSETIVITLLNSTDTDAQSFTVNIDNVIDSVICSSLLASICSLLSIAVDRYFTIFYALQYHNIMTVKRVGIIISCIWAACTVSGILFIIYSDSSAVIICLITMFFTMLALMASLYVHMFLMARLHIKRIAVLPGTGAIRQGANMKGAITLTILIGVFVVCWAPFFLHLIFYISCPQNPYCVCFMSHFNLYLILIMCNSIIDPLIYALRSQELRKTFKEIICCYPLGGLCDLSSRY
T4 sequence (P41968 whole entry): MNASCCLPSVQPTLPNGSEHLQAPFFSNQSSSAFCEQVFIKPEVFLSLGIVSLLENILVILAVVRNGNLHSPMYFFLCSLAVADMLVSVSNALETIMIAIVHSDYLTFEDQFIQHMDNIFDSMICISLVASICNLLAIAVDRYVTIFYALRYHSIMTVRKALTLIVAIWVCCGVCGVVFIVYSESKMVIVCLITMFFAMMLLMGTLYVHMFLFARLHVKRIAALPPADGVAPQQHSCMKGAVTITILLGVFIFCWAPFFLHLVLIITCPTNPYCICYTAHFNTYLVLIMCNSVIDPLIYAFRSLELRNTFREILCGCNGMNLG

Structure (SMILES)	EC50 [1] [nM]	EC50 [2] [nM]	%max [3] [%]	IC50 [4] [nM]	%max [5] [%]	%max [6] [%]	IC50 [7] [nM]	EC50 [8] [nM]	IC50 [9] [nM]	EC50 [10] [nM]	%max [11] [%]	IC50 [12] [nM]
O=C(N[C@H](Cc1ccc(Cl)cc1)C(=O)N1CCC(CN2C(=O)OCC23CC3)(C2CCCCC2)CC1)[C@H]1Cc2ccccc2CN1	2600	620	48	2400	68	15	4.6	6.1	170	990	36	490
CCOC(=O)N(CC1(C2CCCCC2)CCN(C(=O)[C@@H](Cc2ccc(Cl)cc2)NC(=O)[C@H]2Cc3ccccc3CN2)CC1)C(C)C	970	3600	26	1100	95	37	8.1	14	630	550	51	630
O=C(N[C@H](Cc1ccc(Cl)cc1)C(=O)N1CCC(Cn2cncn2)(C2CCCCC2)CC1)[C@H]1Cc2ccccc2CN1	–	–	95	–	–	32	–	–	–	–	61	–
O=C(N[C@H](Cc1ccc(Cl)cc1)C(=O)N1CCC(CN2CCOC2=O)(C2CCCCC2)CC1)[C@H]1Cc2ccccc2CN1	1300	280	56	2000	76	11	4	5.8	180	–	48	460
CC1(C)CCN(CC2(C3CCCCC3)CCN(C(=O)[C@@H](Cc3ccc(Cl)cc3)NC(=O)[C@H]3Cc4ccccc4CN3)CC2)S1(=O)=O	460	850	27	1200	74	18	0.62	5.8	190	450	39	760
CN1CCN(CC2(C3CCCCC3)CCN(C(=O)[C@@H](Cc3ccc(Cl)cc3)NC(=O)[C@H]3Cc4ccccc4CN3)CC2)C1=O	950	460	43	1800	88	24	4.3	16	160	1200	63	660
O=C(N[C@H](Cc1ccc(Cl)cc1)C(=O)N1CCC(CN2C(=O)OCC23CCC3)(C2CCCCC2)CC1)[C@H]1Cc2ccccc2CN1	1700	1200	25	2100	65	6	7.9	15	210	–	32	400
CC1(C)COC(=O)N1CC1(C2CCCCC2)CCN(C(=O)[C@@H](Cc2ccc(Cl)cc2)NC(=O)[C@H]2Cc3ccccc3CN2)CC1	550	340	35	1100	82	6	0.8	2.4	80	–	38	230
O=C(N[C@H](Cc1ccc(Cl)cc1)C(=O)N1CCC(CN2CCNC2=O)(C2CCCCC2)CC1)[C@H]1Cc2ccccc2CN1	980	480	39	1100	82	23	4.8	16	150	880	48	520
C[C@@H]1COC(=O)N1CC1(C2CCCCC2)CCN(C(=O)[C@@H](Cc2ccc(Cl)cc2)NC(=O)[C@H]2Cc3ccccc3CN2)CC1	1300	400	40	1700	68	15	1.3	1.3	110	370	51	210
C[C@H]1COC(=O)N1CC1(C2CCCCC2)CCN(C(=O)[C@@H](Cc2ccc(Cl)cc2)NC(=O)[C@H]2Cc3ccccc3CN2)CC1	2100	400	72	2400	90	19	4.5	8.6	220	640	53	840
O=C(N[C@H](Cc1ccc(Cl)cc1)C(=O)N1CCC(CN2CCCS2(=O)=O)(C2CCCCC2)CC1)[C@H]1Cc2ccccc2CN1	680	660	41	1300	67	19	0.91	5.3	170	540	41	310
CC(C)N(CC1(C2CCCCC2)CCN(C(=O)[C@@H](Cc2ccc(Cl)cc2)NC(=O)[C@H]2Cc3ccccc3CN2)CC1)S(C)(=O)=O	1500	800	39	1300	86	23	2.1	5.6	200	590	48	380
